Measurements taken from PMC6149712, “Anti-Allergic Activity of Monoacylated Ascorbic Acid 2-Glucosides” (Molecules : A Journal of Synthetic Chemistry and Natural …, 2017).
Structures can show the parent of a compound that is named as a salt.

What was measured:
Type in all cases: biochemical
[1] = biological target: T1, hyaluronidase type IV-S from a bovine testis (Bos taurus, UniProt Q2YDK3); assay: Morgan-Elson colorimetric hyaluronidase assay
T1 construct: gene SPAM1
T1 sequence (Q2YDK3 36-553): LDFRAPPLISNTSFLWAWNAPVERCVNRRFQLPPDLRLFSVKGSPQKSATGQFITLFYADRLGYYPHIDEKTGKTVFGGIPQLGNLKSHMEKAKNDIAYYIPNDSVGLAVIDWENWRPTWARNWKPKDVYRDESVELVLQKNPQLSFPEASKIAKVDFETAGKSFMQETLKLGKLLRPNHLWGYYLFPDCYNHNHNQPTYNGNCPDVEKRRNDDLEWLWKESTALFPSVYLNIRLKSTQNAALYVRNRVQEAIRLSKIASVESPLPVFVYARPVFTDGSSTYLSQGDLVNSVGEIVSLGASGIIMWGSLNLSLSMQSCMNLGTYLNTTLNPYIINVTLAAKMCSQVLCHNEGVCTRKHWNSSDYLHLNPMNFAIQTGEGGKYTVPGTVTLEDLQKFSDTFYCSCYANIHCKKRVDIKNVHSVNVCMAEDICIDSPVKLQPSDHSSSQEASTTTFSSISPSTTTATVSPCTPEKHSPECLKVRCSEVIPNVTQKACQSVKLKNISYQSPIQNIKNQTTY

[2] = biological target: T1, hyaluronidase type IV-S from a bovine testis; assay: Morgan-Elson colorimetric hyaluronidase assay, positive control
[3] = biological target: T1, hyaluronidase type IV-S from a bovine testis; assay: Morgan-Elson colorimetric hyaluronidase assay; remark: listed apart in the source

## CCCCCCCCCCCCCCCC(=O)OC[C@H](O)[C@H]1OC(=O)C(O[C@H]2O[C@H](CO)[C@@H](O)[C@H](O)[C@H]2O)=C1O [6-sPalm-AA-2G, 2-O-α-D-Glucopyranosyl-6-O-hexadecanoyl-L-ascorbic acid]
[1]
  IC50: 22 µM

## O=C(O)c1cc(=O)c2c(OCC(O)COc3cccc4oc(C(=O)O)cc(=O)c34)cccc2o1 [DSCG, Cromolyn sodium salt]
[2]
  Morgan-Elson colorimetric hyaluronidase assay, positive control: Cromolyn sodium salt (DSCG), which is used clinically as an anti-allergy drug, was used as a positive control.

## CCCCCCCCCCCCCC(=O)OC[C@H](O)[C@H]1OC(=O)C(O[C@H]2O[C@H](CO)[C@@H](O)[C@H](O)[C@H]2O)=C1O [6-sMyri-AA-2G]
[3]
  Morgan-Elson colorimetric hyaluronidase assay: 6-sMyri-AA-2G and 6-sPalm-AA-2G significantly inhibited the activity more than 6-sDode-AA-2G

## CCCCCCC(CCCCCC)C(=O)OC[C@H](O)[C@H]1OC(=O)C(O[C@H]2O[C@H](CO)[C@@H](O)[C@H](O)[C@H]2O)=C1O [6-bMyri-AA-2G]
[3]
  Morgan-Elson colorimetric hyaluronidase assay: 6-bMyri-AA-2G and 6-bPalm-AA-2G significantly inhibited the activity more than 6-bDode-AA-2G

## CCCCCCCCCCCCCCCC(=O)OC[C@H](O)[C@H]1OC(=O)C(O)=C1O [6-Palm-AA, 6-O-palmitoyl-L-AA]
[1]
  IC50: 194 µM

## CCCCCCCCCCCCCCCC(=O)OC[C@H](O)[C@H]1OC(=O)C(O[C@@H]2O[C@H](CO)[C@@H](O)[C@H](O)[C@H]2O)=C1O [6-sPalm-AA-2βG, 2-O-β-D-glucopyranosyl-6-O-hexadecanoyl-L-ascorbic acid]
[1]
  IC50: 25 µM

## CCCCCCCC(CCCCCCC)C(=O)OC[C@H](O)[C@H]1OC(=O)C(O[C@H]2O[C@H](CO)[C@@H](O)[C@H](O)[C@H]2O)=C1O [6-bPalm-AA-2G]
[3]
  Morgan-Elson colorimetric hyaluronidase assay: 6-bMyri-AA-2G and 6-bPalm-AA-2G significantly inhibited the activity more than 6-bDode-AA-2G
